Assay results from patent US9163040B2, “Substituted bisphenyl butanoic phosphonic acid derivatives as NEP inhibitors” (NOVARTIS AG, priority 2013, dated 2015).

What was measured:
[1] = system: Aβ(1-40) peptide concentrations in cerebrospinal fluid; test: Aβ model: CSF Aβ after oral dosing, related to plasma ANP increase by exposure-response regression; format: in vivo, rat; details: rats, p.o.; for CSF Aβ (% vehicle control): 5 hr post-dosing; for fold higher % increases in CSF Aβ compared with Example 1: plasma ANP 200 to 240% of baseline
Method: The relative CNS and peripheral therapeutic activities of NEP inhibitors were evaluated in two nonclinical animal models. Compounds or their vehicle were administered orally to conscious rats, and either the increase in Aβ(1-40) peptide concentrations in cerebrospinal fluid (CSF; “Aβ model”) or the increase in plasma levels of the NEP substrate, atrial natriuretic peptide (ANP; “ANP potentiation model”) were determined. Thus, NEP inhibitors that elicit no or small increases in CSF Aβ at a given increase in plasma ANP may have an advantage over ones that trigger large elevations in Aβ.
CNS effects of NEP inhibitors were assessed in a different rat model (“Aβ model”). In this study, we have measured cerebrospinal fluid (CSF) levels of Aβ as a sensitive indicator of CNS Aβ concentrations (Kwasi G. Mawuenyega, 2010, Science, Vol 330, 1774)).
Experiments were conducted in naïve adult, male, WH rats purchased from Charles River Labs (body weights: 495±53 g, mean±SD; age: 8.5-12 months) that were housed and fed as described above. Rats were treated by oral gavage with 1 mL/kg of vehicle (0.5% methylcellulose+0.1% Tween 80) or a selected dose of NEP inhibitor between 7:30 and 10:00 am. Five hours later, rats were anesthetized with isoflurane, a laparotomy was performed, and an abdominal aortic blood sample was obtained on EDTA. Blood samples were centrifuged at 4° C. and 20 K g to separate plasma. Plasma samples were aliquoted and frozen (−70° C.) for later analysis of plasma compound levels. After exsanguination of the rat, the skin and muscle overlying the cisterna magna were retracted. A sample of CSF was collected by direct needle puncture through the exposed dura into the cisterna magna. CSF was transferred to pre-chilled (on ice) low-binding tubes (Protein LoBind tubes, 1.5 mL, Order No. 022431081, Eppendorf) using low-binding pipette tips (VWR Catalog #37001-164) as quickly as possible to minimize Aβ aggregation and adherence to the devices. CSF samples were frozen (−70° C.) for later analysis of Aβ levels
Aβ40 in CSF was quantified using the MesoScale Discovery (MSD, Gaithersburg, Md.) 96-well MULTI-ARRAY Human/Rodent (4G8) Aβ40 Ultra-Sensitive Kit (K110FTE-2). The assay was done according to the manufacturer's instructions except for the standard curve and the sample preparation. A-10 μL aliquot of each CSF sample was mixed with 190 μL 1% BSA/1× Tris solution (“Blocker A” from kit) for a 1:20 CSF dilution. Synthetic Aβ1-40 peptide (from kit) was serially diluted in 1% BSA/1× Tris solution to obtain standards from 10,000-10 pg/mL for an 8-point standard curve.
MSD MULTI-SPOT Aβ40 peptide plates from the kit were incubated for 1 hour after pipetting 150 μL/well 1% BSA/1× Tris solution. The plates were washed 3 times with 400 μL 1× Tris wash buffer (from kit) using a BioTek EL406 automated plate washer (Winooski, Vt.). For CSF samples and standards, 25 μL of a 1×SULFO-TAG 4G8 detection antibody/1× “Blocker G”/1% BSA/1× Tris solution (“detection antibody solution” from kit) was pipetted into the plate. CSF samples and standards were pipetted at 25 μL/well into the plates immediately following detection antibody solution additions. The plates were incubated for 2 hours and washed 3 times with 400 μL 1× Tris wash buffer using the EL406 automated plate washer. “Read buffer T” (from kit), 1×150 μL/well, was pipetted into the plates. The MSD plates were read immediately on the MSD SECTOR Imager 6000 reader.
Standards were assayed in triplicate. CSF samples were assayed in duplicate. Curve fitting, back-calculation, % recovery, and interpolation of sample concentrations were performed using MSD DISCOVERY WORKBENCH Data Analysis Tools 3.0 Software. Signal generated by the standards was plotted and fit using the 4-parameter logistical curve fitting option with a 1/y^2 weighting function. Sample pg/mL concentrations were interpolated from the fit curve. […]

[2] = target: recombinant human neutral endopeptidase (Homo sapiens (Human), UniProt P08473); test: in vitro inhibition of recombinant human neutral endopeptidase (fluorescence lifetime assay); format: biochemical; details: 1 hour pre-incubation, read after 1 hour at room temperature, pH 7.4; read-out: Human NEP IC50
From the text: The activity of a compound according to the present invention can be assessed by the following in vitro and in vivo methods and/or by the following in vitro and in vivo methods well-described in the art. See Doering K, Meder G, Hinnenberger M, Woelcke J, Mayr L M, Hassiepen U, (2009) “A fluorescence lifetime-based assay for protease inhibitor profiling on human kallikrein 7”, Biomol Screen, January; 14(1):1-9.
In particular, the in vitro inhibition of recombinant human neutral endopeptidase can be determined as follows:
Recombinant human neutral endopeptidase (expressed in insect cells and purified using standard methods, final concentration 7 pM) is pre-incubated with test compounds at various concentrations for 1 hour at room temperature in 10 mM sodium phosphate buffer at pH 7.4, containing 150 mM NaCl and 0.05% (w/v) CHAPS. The enzymatic reaction is started by the addition of a synthetic peptide substrate Cys(PT14)-Arg-Arg-Leu-Trp-OH to a final concentration of 0.7 μM. Substrate hydrolysis leads to an increase in fluorescence lifetime (FLT) of PT14 measured by means of a FLT reader as described by Doering et al. (2009) as referenced supra. The effect of the compound on the enzymatic activity was determined after 1 hour (t=60 min) incubation at room temperature. […]

[3] = at plasma compound concentration corresponding to plasma ANP 200 % baseline
[4] = at plasma compound concentration corresponding to plasma ANP 210 % baseline
[5] = at plasma compound concentration corresponding to plasma ANP 220 % baseline
[6] = at plasma compound concentration corresponding to plasma ANP 230 % baseline
[7] = at plasma compound concentration corresponding to plasma ANP 240 % baseline

recombinant human neutral endopeptidase, sequence (P08473 whole entry): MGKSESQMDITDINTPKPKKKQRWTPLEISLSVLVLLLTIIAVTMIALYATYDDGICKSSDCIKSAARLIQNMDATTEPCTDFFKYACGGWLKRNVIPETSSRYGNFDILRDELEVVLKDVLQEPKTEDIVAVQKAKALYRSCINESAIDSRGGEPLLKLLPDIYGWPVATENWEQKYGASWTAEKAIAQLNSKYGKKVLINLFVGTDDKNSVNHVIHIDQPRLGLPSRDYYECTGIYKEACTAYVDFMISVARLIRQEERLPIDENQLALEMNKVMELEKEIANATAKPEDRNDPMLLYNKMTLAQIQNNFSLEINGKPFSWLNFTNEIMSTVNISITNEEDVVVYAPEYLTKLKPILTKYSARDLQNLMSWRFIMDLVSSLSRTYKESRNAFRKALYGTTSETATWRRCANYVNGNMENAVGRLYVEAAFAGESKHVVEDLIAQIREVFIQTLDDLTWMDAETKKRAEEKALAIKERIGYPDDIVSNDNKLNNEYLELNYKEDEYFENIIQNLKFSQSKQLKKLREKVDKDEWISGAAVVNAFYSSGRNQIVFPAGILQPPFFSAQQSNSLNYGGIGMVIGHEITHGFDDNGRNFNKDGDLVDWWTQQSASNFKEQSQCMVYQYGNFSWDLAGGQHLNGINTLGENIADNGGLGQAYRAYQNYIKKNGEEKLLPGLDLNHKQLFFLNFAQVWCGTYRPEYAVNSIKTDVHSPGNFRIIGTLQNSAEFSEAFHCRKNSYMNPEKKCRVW

Compound | CSF Aβ (% vehicle control) [1, 3] | CSF Aβ (% vehicle control) [1, 4] | CSF Aβ (% vehicle control) [1, 5] | CSF Aβ (% vehicle control) [1, 6] | CSF Aβ (% vehicle control) [1, 7] | fold higher % increases in CSF Aβ compared with Example 1 [1] | IC50 [2]
CCOC(=O)C[C@@H](Cc1ccc(-c2cccc(Cl)c2)cc1)NC(=O)CCC(=O)O [Example 1-2 (WO2010/136493)] | 225 % vehicle control | 242 % vehicle control | 260 % vehicle control | 211 % vehicle control | 295 % vehicle control | 5- to 9 fold | 
CCOC(=O)C[C@@H](Cc1ccc(-c2cc(Cl)ccc2F)cc1)NC(=O)CCC(=O)O [Example 1-17 (WO2010/136493)] | 156 % vehicle control | 179 % vehicle control | 202 % vehicle control | 225 % vehicle control | 248 % vehicle control | 4 fold | 
CC(OC(=O)C[C@@H](Cc1ccc(-c2cc(Cl)ccc2F)cc1)NC(=O)CCP(=O)(O)O)OC(=O)OC1CCCCC1 (stereo partly drawn) [Example 1] | 114 % vehicle control | 120 % vehicle control | 126 % vehicle control | 132 % vehicle control | 139 % vehicle control |  | 
O=C(O)C[C@@H](Cc1ccc(-c2cc(Cl)ccc2F)cc1)NC(=O)CCP(=O)(O)O [Example 2, (R)-4-(5′-chloro-2′-fluoro-[1,1′-biphenyl]-4-yl)-3-(3-phosphonopropanamido)butanoic acid] |  |  |  |  |  |  | 0.11 nM
